# Data taken from US11071770B2, “Methods for detecting cardiac damage” (Acorda Therapeutics, Inc., priority 2007, dated 2021).
# Marks after values point to notes of the source that are not given here. Where a SMILES comes first, the peptide text is derived from it. The star is where a group is joined. Cbz = O=C(OCc1ccccc1)*
# Assays:
# [1] = system: neonatal rat cardiomyocytes; conditions: NRCM, doxorubicin 1 uM
# [2] = system: cTnI; test: Ubiquitinylation of cTnI (immunoprecipitation, ubiquitin antibody); assay type: cell-based, rat; conditions: NRCM, Dox or Dox+NRG1
# [3] = system: mice with cardiac myocyte-specific overexpression of a dominant negative PI3K; test: Survival of doxorubicin-treated WT and dnPI3K transgenic mice (Kaplan-Meier); assay type: in vivo, mouse; conditions: doxorubicin 20 mg/kg i.p., fourteen-day
# [4] = system: serum creatine kinase (CK); test: Serum creatine kinase (CK) level; assay type: in vivo, mouse; conditions: four days after doxorubicin injection
# Experimental: (§1) FIGS. 1A-1C show survival graphs (A), histograms (B-C), and immunoblots (C). […] Fourteen day survival was analyzed by the Kaplan-Meier method.
# Serum creatine kinase (CK) levels, an index of cardiac injury, were also assessed to provide an additional read-out of heart function.
# [5] = system: C57BL/6 mice; test: Hemodynamic measurements by direct left ventricular catheterization, body and heart weights; assay type: in vivo, mouse
# [6] = system: mTOR, P70S6K, S6 and eIF4G; test: Phosphorylation of translational molecules by Western blot; assay type: cell-based, rat; conditions: cardiomyocytes, 48 hours after the treatment
# Experimental: The phosphorylation levels of mTOR, P70S6K, S6, 4EBP and EIF4G were analyzed by Western blot analysis.
# We assessed the activation of several translation machineries and related signaling pathways in Dox-Placebo and Dox-NRG1 treated cardiomyocytes.
# [7] = system: caspase 3, 6 and 9 as well as caspase-10, 2, and 5; test: Caspase activation assay in cardiomyocytes; assay type: cell-based, rat; conditions: Dox or Dox+NRG1
# Excerpt: To investigate whether NRG1 inhibited doxorubicin-induced caspase degradation of cTnI and cTnT, the present inventors first identified the specific caspases that were responsible for doxorubicin-induced degradation of cTnI and cTnT. […] In addition, down-regulation of cTnI was blocked by inhibitors for caspase-10 (extrinsic pathway), caspase-2, caspase-13 or caspase-5.
# [8] = system: C57BL/6 mice; test: Two-week survival of doxorubicin-treated mice (Kaplan-Meier); assay type: in vivo, mouse; conditions: two weeks after doxorubicin 20 mg/kg i.p.; NRG1 0.75 mg/kg s.c. daily vs placebo; doxorubicin vs non-treated control
# Experimental: as §1
# Cardiac function was assessed by direct left ventricular (LV) catheterization four days and two weeks after doxorubicin treatment. Two-week survival was analyzed by the Kaplan-Meier methods.
# [9] = system: cTnI and cTnT protein levels; test: cTnI and cTnT protein levels in hearts of doxorubicin-treated WT and dnPI3K mice; assay type: in vivo, mouse; conditions: two weeks after doxorubicin injection
# Experimental: FIGS. 5A-5C show a survival graph (A), histograms (B), and an immunoblot (C). […] Fourteen-day survival was analyzed by the Kaplan-Meier method. FIG. 5B depicts hemodynamic measurements in doxorubicin-treated dnPI3K mice. […] Hemodynamic measurements were performed six days after the doxorubicin treatment.
# The present inventors measured cTnI and cTnT protein levels in doxorubicin-treated WT and dnPI3K mice.
# [10] = system: cTnI, cTnT and cTnC protein levels; test: Cardiac structural protein levels in heart by Western blot; assay type: in vivo, mouse
# Experimental: as §1
# Eight to ten week old C57BL/6 male mice were used for analyses wherein heart samples were isolated. […] Heart samples (n=3-4 per group) were collected and snap-frozen in liquid nitrogen.
# [11] = system: mRNA of cTnI, cTnT, GATA4, MEF2c and Nkx2.5; test: mRNA levels by quantitative RT-PCR in cardiomyocytes; assay type: cell-based, rat; conditions: for mRNA level of cTnI and cTnT: cardiomyocytes, Dox or Dox+NRG1
# [12] = system: cytochrome c release; test: Cytochrome c release (cell fractionation and Western blot); assay type: cell-based, rat; conditions: NRCM, Dox or Dox+NRG1
# [13] = WT mice, NRG1 0.75 mg/kg s.c. or placebo
# [14] = doxorubicin-treated cardiomyocytes
molecule,measurement,setting,value
CC(C)C[C@@H](C=O)NC(=O)[C@H](CC(C)C)NC(=O)[C@H](CC(C)C)NC(=O)OCc1ccccc1 [MG132] (Cbz-Leu-Leu-Leu-aldehyde),effect on doxorubicin-induced down-regulation of cTnI,[1],blocked
COc1cccc2c1C(=O)c1c(O)c3c(c(O)c1C2=O)C[C@@](O)(C(=O)CO)C[C@@H]3O[C@H]1C[C@H](N)[C@H](O)[C@H](C)O1 [doxorubicin],ubiquitinylation of cTnI,[2],increased
same,survival rate,[3]; [13],33%
same,serum CK level compared to control mice,[4],significantly increased
same,BW,"[5]; C57BL/6 mice, doxorubicin 20 mg/kg i.p. single dose with placebo or NRG1 0.75 mg/kg s.c. daily, five days after doxorubicin",20 ± 0.4 g
same,Cardiac Output,[5]; as E1,1185 ± 203 µL/min
same,EF,[5]; as E1,17 ± 2 %
same,HW/BW,[5]; as E1,4.1 ± 0.1 mg/g
same,HW/TL,[5]; as E1,5.1 ± 0.1 mg/mm
same,LVEDP,[5]; as E1,3.6 ± 0.9^ mmHg
same,LVW/BW,[5]; as E1,3.5 ± 0.1^ mg/g
same,LVW/TL,[5]; as E1,4.4 ± 0.1 mg/mm
same,dP/dt max,[5]; as E1,7067 ± 884 ^ mmHg/sec
same,dP/dt min,[5]; as E1,5021 ± 602*^ mmHg/sec
same,LVSP,"[5]; as E1, LV systolic pressure",84 ± 2*^ mmHg
same,HW,"[5]; as E1, heart weight",83 ± 3 mg
same,LVW,"[5]; as E1, left ventricular weight",70 ± 1 mg
same,TL,"[5]; as E1, tibia length",16.3 ± 0.2 ^ mm
same,"phosphorylation levels of mTOR, P70S6K, S6 and eIF4G",[6],decreased
same,"activation of caspase 3, 6 and 9 as well as caspase-10, 2, and 5",[7],significantly increased
same,survival,[8],significantly decreased
same,cTnI protein level in dnPI3K hearts,[9],decrease
same,cTnT protein levels in hearts of doxorubicin-treated mice compared to control mice,[9],No changes
same,"levels of cardiac structural proteins (α-sarcomeric actin, α-actinin, TnT, TnI, TnC, tropomyosin) in hearts",[10]; doxorubicin 20 mg/kg i.p.,significantly decreased
same,mRNA level of cTnI and cTnT,[11],decreased
same,cytochrome c release to the cytosol,[12],induced increasing
"NRG1: GGF2, a recombinant neuregulin-1; gift from Acorda Therapeutics (protein) GNEAAPAGASVCYSSPPSVGSVQELAQRAAVVIEGKVHPQRRQQGALDRKAAAAAGEAGAWGGDREPPAAGPRALGPPAEEPLLAANGTVPSWPTAPVPSAGEPGEEAPYLVKVHQVWAVKAGGLKKDSLLTVRLGTWGHPAFPSCGRLKEDSRYIFFMEPDANSTSRAPAAFRASFPPLETGRNLKKEVSRVLCKRCALPPRLKEMKSQESAAGSKLVLRCETSSEYSSLRFKWFKNGNELNRKNKPQNIKIQKKPGKSELRINKASLADSGEYMCKVISKLGNDSASANITIVESNATSTSTTGTSHLVKCAEKEKTFCVNGGECFMVKDLSNPSRYLCKCPNEFTGDRCQNYVMASFYSTSTPFLSLPE",ubiquitinylation of cTnI,[2],abolished this effect
same,survival rate,[3]; [13],67%
same,survival rate,"[3]; dnPI3K mice, NRG1 0.75 mg/kg s.c.",56%
same,"activation of caspase 3, 6 and 9 as well as caspase-10, 2, and 5",[7],significantly inhibited
same,survival,[8],significantly improved survival
same,cTnI protein level in dnPI3K hearts,[9],abolished doxorubicin-induced down-regulation
same,"protein levels of cTnI, cTnT and cTnC in doxorubicin-injured hearts","[10]; NRG1 0.75 mg/kg s.c. daily, doxorubicin 20 mg/kg i.p., five days after doxorubicin",significantly increased
same,"protein levels of α-sarcomeric actin, α-actinin and tropomyosin in doxorubicin-injured hearts",[10]; NRG1 injection in vivo,had no effects
same,mRNA level of cTnI and cTnT,[11],maintained
same,mRNA level of GATA4,[11]; [14],maintained
same,mRNA level of MEF2c and Nkx2.5,[11]; [14],slightly increased
same,cytochrome c release to the cytosol,[12],inhibited this effect
